BindingDB's records for doi:10.1016/j.bmc.2013.04.067 (Chinese Academy of Sciences, 2013)

Assay: Inhibition of p-gp in human KB/VCR cells assessed as potentiation of 100 nM docetaxel-induced cytotoxicity after 72 hrs by MTT assay

| SMILES | EC50 |
| --- | --- |
| CC1(C)[C@@H](O)CC[C@]2(C)[C@H]3C[C@@H](O)[C@@H]4[C@@H]([C@@](C)(O)CCCNCCc5ccccc5)CC[C@@]4(C)[C@]3(C)CC[C@@H]12 | 1310 nM |
| CC1(C)[C@@H](O)CC[C@]2(C)[C@H]3C[C@@H](O)[C@@H]4[C@@H]([C@@](C)(O)CCCNCc5ccccc5)CC[C@@]4(C)[C@]3(C)CC[C@@H]12 | 1370 nM |
